Results from the supplement of paper PMC5579334.

How the values were obtained:
YST-1 = assay: relative IC50 (inflection point of fitted dose-response curve, CellTiter-Glo viability, 72 h; top asymptote may be below 50% inhibition); higher = less potent
Outline: (§1)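 MPNST cell lines and primary human Schwann cells were seeded at 750–1000 cells per well into 384-well plates preprinted with each compound at five concentrations in 10-fold steps, then incubated 72 h at 37 °C, 5% CO2. CellTiter-Glo ATP luminescence gave viability, scaled between vehicle and positive-control wells, with duplicates averaged where present. Curves were fitted with a four-parameter logistic model. Percent inhibition refers to the top concentration, while drug sensitivity score and relative IC50, censored at the top concentration, come from these fits.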

S462 = assay: as above
Outline: as §1

HSC1 [1] = assay: as above
Outline: as §1

HS-PSS [2] = assay: as above
Outline: as §1

ST8814 [3] = assay: as above
Outline: as §1

STS26T [4] = assay: as above
Outline: as §1

HSC2 [5] = assay: as above
Outline: as §1

HS-Sch-2 = assay: as above
Outline: as §1

S1507-2 [6] = assay: as above
Outline: as §1

HSC1 [7] = assay: relative IC50 (inflection point of fitted dose-response curve, CellTox-Green cytotoxicity, 72 h; top asymptote may be below 50%); higher = less potent
Outline: (§2)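 For 72 h at 37 °C, MPNST cell lines and primary human Schwann cells were exposed in 384-well plates to five 10-fold compound dilutions. CellTox-Green, added before seeding at a final 1:1000 dilution, gave fluorescence from DNA released by disrupted cells. Signals were scaled to vehicle and positive-control wells, cultures failing plate quality control were left out, and four-parameter logistic fits were applied. Relative IC50 and drug sensitivity score were derived from the fits, with IC50 censored at the top concentration.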

HS-PSS [8] = assay: as above
Outline: as §2

ST8814 [9] = assay: as above
Outline: as §2

STS26T [10] = assay: as above
Outline: as §2

HSC2 [11] = assay: as above
Outline: as §2

S1507-2 [12] = assay: as above
Outline: as §2

| Structure (SMILES) | relative IC50 (YST-1) | relative IC50 (S462) | relative IC50 (HSC1 [1]) | relative IC50 (HS-PSS [2]) | relative IC50 (ST8814 [3]) | relative IC50 (STS26T [4]) | relative IC50 (HSC2 [5]) | relative IC50 (HS-Sch-2) | relative IC50 (S1507-2 [6]) | relative IC50 (HSC1 [7]) | relative IC50 (HS-PSS [8]) | relative IC50 (ST8814 [9]) | relative IC50 (STS26T [10]) | relative IC50 (HSC2 [11]) | relative IC50 (S1507-2 [12]) |
| --- | --- | --- | --- | --- | --- | --- | --- | --- | --- | --- | --- | --- | --- | --- | --- |
| Nc1nc(NC2CC2)cc(-c2cccc(Cl)c2Cl)n1 [TH588] | 3620 nM | 6910 nM | 5430 nM | 3820 nM | 3830 nM | 3710 nM | 4280 nM | 4160 nM | 4360 nM | 4520 nM | > 25000 nM | 5560 nM | 3540 nM | 3820 nM | 4040 nM |
| CC(C)C[C@H](NC(=O)[C@H](Cc1ccccc1)NC(=O)c1cnccn1)B(O)O [Bortezomib] | 10.1 nM | 5.87 nM | 7.32 nM | 51.1 nM | 6.3 nM | 11 nM | 6.64 nM | 3.47 nM | 10.1 nM | 22.6 nM | 123 nM | 9.88 nM | 11.2 nM | 21.4 nM | 8.94 nM |
| O=NN(CCCl)C(=O)NC1CCCCC1 [Lomustine] | > 10000 nM | > 10000 nM | > 10000 nM | > 10000 nM | > 10000 nM | > 10000 nM | > 10000 nM | > 10000 nM | > 10000 nM | > 10000 nM | > 10000 nM | > 10000 nM | > 10000 nM | > 10000 nM | > 10000 nM |
| COc1c(C)cnc(Cn2cnc3c(Cl)nc(N)nc32)c1C [BIIB021] | 328 nM | 186 nM | 395 nM | 424 nM | 280 nM | 247 nM | 297 nM | 95.1 nM | 268 nM | 217 nM | 396 nM | 587 nM | 316 nM | 231 nM | 484 nM |
| CCCc1cc(C)[nH]c(=O)c1CNC(=O)c1cc(-c2ccnc(N3CCN(C)CC3)c2)cc2c1cnn2C(C)C [GSK343] | 4350 nM | 3250 nM | 1520 nM | 2970 nM | 3200 nM | 3820 nM | 1810 nM | 3810 nM | 2690 nM | > 10000 nM | 3090 nM | 3100 nM | 2660 nM | > 10000 nM | 2310 nM |
| CO[C@H]1C[C@@H]2CC[C@@H](C)[C@@](O)(O2)C(=O)C(=O)N2CCCC[C@H]2C(=O)O[C@H]([C@H](C)C[C@@H]2CC[C@@H](OP(C)(C)=O)[C@H](OC)C2)CC(=O)[C@H](C)/C=C(\C)[C@@H](O)[C@@H](OC)C(=O)[C@H](C)C[C@H](C)/C=C/C=C/C=C/1C [Ridaforolimus] | 1.02 nM | 1.26 nM | 0.221 nM | 1.87 nM | 0.496 nM | 0.663 nM | 0.319 nM | 2.85 nM | 1.55 nM | > 100 nM | > 100 nM | > 100 nM | > 100 nM | > 100 nM | > 100 nM |
